Values joined by “and” are separate entries in the source; they are usually repeats but may differ in a detail not shown here. Equal entries are not always repeated. Where two headings read alike, the source gives them in different places.
Columns and labels:
Ba/F3-EGFR-insSVD = experiment: Ba/F3 cell survival assay, EGFR-insSVD; type: cell-based; conditions: Mus musculus, BaF3, 48 h, read-out: BA/F3 (insSVD) IC50, cell viability, Cell Titer-Glo, 48 h, with 10 ng/mL EGF, without IL-3
Description: (§1) 293T cells from ATCC were transfected with pBABEpuro expression constructs for WT EGFR or EGFR-insSVD and pCL-Eco packaging vector using Fugene-6 transfection reagent from Promega. Plates were incubated at 37° C. for 48 h. Retrovirus was harvested by filtering the media supernatant through a 0.45 μm filter.
(§2) Ba/F3 cells purchased from DSMZ were grown in RPMI+10% FBS+10 ng/mL IL-3 and infected with filtered retroviral supernatant at a 1:2 dilution. Polybrene was added to a concentration of 8 μg/mL, plates were spun for 90 min, and incubated overnight at 37° C. 2 μg/mL puromycin was added to the infected cells 24 h after infection and cells were continually grown in the presence of puromycin and 10 ng/mL IL-3. Following stably expressing Ba/F3 cell lines were generated: Ba/F3-EGFR-WT, Ba/F3-EGFR-insSVD, (Ba/F3-vector-control).
For cell survival assays, Ba/F3 cells were grown to a density of 1-2 million cells per mL, spun down and resuspended in media without IL-3, and replated at a concentration 200,000-500,000 cells per mL. The cells ectopically expressing WT EGFR or EGFR-insSVD were plated with 10 ng/mL Millipore Culture grade EGF. The cells ectopically expressing pBABEpuro empty vector were plated with 10 ng/mL IL-3.
2 days later, cells were plated in 50 μL in a 384 well plate at a concentration of 4000 cells per well for cells assayed in the absence of IL-3 and 2000 cells per well for cells assayed in the presence of IL-3. 100 nL of compound was added to each well using a 100 nL pin head, and plates were incubated at 37° C. for 48 h.
Cell viability was measured by adding 20 μL of Cell Titer-Glo Luminescent Cell Viability Reagent diluted 1:3 in PBS. Plates were sealed with Perkin Elmer Top-Seal, inverted several times to mix, and immediately centrifuged at 1000 rpm for 2 min. Plates were incubated in low light conditions for 8-10 min and luminescence was measured.

Ba/F3-EGFR-WT = experiment: Ba/F3 cell survival assay, WT EGFR; type: cell-based
Description: as §1, §2
The cells ectopically expressing WT EGFR or EGFR-insSVD were plated with 10 ng/mL Millipore Culture grade EGF. The cells ectopically expressing pBABEpuro empty vector were plated with 10 ng/mL IL-3.
100 nL of compound was added to each well using a 100 nL pin head, and plates were incubated at 37° C. for 48 h.
Cell viability was measured by adding 20 μL of Cell Titer-Glo Luminescent Cell Viability Reagent diluted 1:3 in PBS. Plates were sealed with Perkin Elmer Top-Seal, inverted several times to mix, and immediately centrifuged at 1000 rpm for 2 min.

human Bub1 = human Bub1 (Homo sapiens (Human), UniProt O43683); experiment: Bub1 high ATP kinase assay (TR-FRET); type: biochemical
Chain of human Bub1 (O43683 704-1085): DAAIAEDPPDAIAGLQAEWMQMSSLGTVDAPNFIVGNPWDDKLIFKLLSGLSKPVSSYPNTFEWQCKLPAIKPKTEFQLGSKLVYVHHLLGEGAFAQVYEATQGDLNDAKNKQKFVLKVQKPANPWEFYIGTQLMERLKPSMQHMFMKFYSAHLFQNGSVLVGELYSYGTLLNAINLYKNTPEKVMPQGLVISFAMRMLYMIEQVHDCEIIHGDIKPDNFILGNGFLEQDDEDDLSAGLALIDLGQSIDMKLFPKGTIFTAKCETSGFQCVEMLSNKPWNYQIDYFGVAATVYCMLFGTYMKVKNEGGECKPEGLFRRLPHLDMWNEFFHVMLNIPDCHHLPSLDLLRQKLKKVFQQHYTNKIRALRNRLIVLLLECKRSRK
Excerpt: Bub1-inhibitory activity of compounds of the present invention at a high ATP concentration was quantified employing the Bub1 TR-FRET high ATP kinase assay as described in the following paragraphs.
N-terminally His6-tagged recombinant catalytic domain of human Bub1 (amino acids 704-1085), expressed in insect cells (Hi5) and purified by Ni-NTA affinity chromatography and subsequent size exclusion chromatography, was used as enzyme.

[1] = Mus musculus, BaF3, 48 h, read-out: BA/F3 (wild type) IC50, cell viability, Cell Titer-Glo, 48 h, with 10 ng/mL EGF, without IL-3
[2] = read-out: Bub1 high ATP (2 mM) IC50, 2 mM ATP
[3] = read-out: BA/F3 (wild type) IC50, cell viability, Cell Titer-Glo, 48 h, with 10 ng/mL EGF, without IL-3
[4] = Bub1 high ATP (2 mM) IC50, 2 mM ATP

## COc1c(F)cccc1Nc1c(-c2ccncc2OCC2CCO2)[nH]c2c1C(=O)NCC2 (racemic) [Example 4, 3-(3-fluoro-2-methoxyanilino)-2-{3-[(oxetan-2-yl)methoxy]pyridin-4-yl}-1,5,6,7-tetrahydro-4H-pyrrolo[3,2-c]pyridin-4-one]
Ba/F3-EGFR-insSVD
  IC50: 0.0593 µM
Ba/F3-EGFR-WT; [1]
  IC50: 0.939 µM
Human Bub1; [2]
  IC50: 17.4 µM

## Cc1c(Cl)cccc1Nc1c(-c2ccncc2OCC2CCO2)[nH]c2c1C(=O)NCC2 (racemic) [Example 7, 3-(3-chloro-2-methylanilino)-2-{3-[(oxetan-2-yl)methoxy]pyridin-4-yl}-1,5,6,7-tetrahydro-4H-pyrrolo[3,2-c]pyridin-4-one]
Ba/F3-EGFR-insSVD
  IC50: 0.0482 µM
Ba/F3-EGFR-WT; [1]
  IC50: 0.82 µM
Human Bub1; [2]
  IC50: 2.63 µM

## O=C1NCCc2[nH]c(-c3ccncc3OCC3CCO3)c(Nc3cccc(Cl)c3Cl)c21 (racemic) [Example 10, 3-(2,3-dichloroanilino)-2-{3-[(oxetan-2-yl)methoxy]pyridin-4-yl}-1,5,6,7-tetrahydro-4H-pyrrolo[3,2-c]pyridin-4-one]
Ba/F3-EGFR-insSVD
  IC50: 0.0659 µM
Ba/F3-EGFR-WT; [1]
  IC50: 1.04 µM
Human Bub1; [2]
  IC50: 13.8 µM

## COc1c(Nc2c(-c3ccncc3OCC3CCO3)[nH]c3c2C(=O)NCC3)ccc(F)c1Cl (racemic) [Example 13, 3-(3-chloro-4-fluoro-2-methoxyanilino)-2-{3-[(oxetan-2-yl)methoxy]pyridin-4-yl}-1,5,6,7-tetrahydro-4H-pyrrolo[3,2-c]pyridin-4-one]
Ba/F3-EGFR-insSVD
  IC50: 0.348 µM
Ba/F3-EGFR-WT; [1]
  IC50: 2.3 µM
Human Bub1; [2]
  IC50: > 20 µM

## COc1c(F)cccc1Nc1c(-c2ccncc2OCC2(C)CCO2)[nH]c2c1C(=O)NCC2 (racemic) [Example 19, 3-(3-fluoro-2-methoxyanilino)-2-{3-[(2-methyloxetan-2-yl)methoxy]pyridin-4-yl}-1,5,6,7-tetrahydro-4H-pyrrolo[3,2-c]pyridin-4-one]
Ba/F3-EGFR-insSVD
  IC50: 0.0667 µM
Ba/F3-EGFR-WT; [1]
  IC50: 2.06 µM
Human Bub1; [2]
  IC50: 13.7 µM and > 20 µM

## COc1c(Cl)cccc1Nc1c(-c2ccncc2OCCC2CCO2)[nH]c2c1C(=O)NCC2 (racemic) [Example 24, 3-(3-chloro-2-methoxyanilino)-2-{3-[2-(oxetan-2-yl)ethoxy]pyridin-4-yl}-1,5,6,7-tetrahydro-4H-pyrrolo[3,2-c]pyridin-4-one]
Ba/F3-EGFR-insSVD
  IC50: 0.0175 µM
Ba/F3-EGFR-WT; [1]
  IC50: 0.636 µM
Human Bub1; [2]
  IC50: 2.7 µM

## COc1c(Br)cccc1Nc1c(-c2ccncc2OCC2CCO2)[nH]c2c1C(=O)NCC2 (racemic) [Example 33, 3-(3-bromo-2-methoxyanilino)-2-{3-[(oxetan-2-yl)methoxy]pyridin-4-yl}-1,5,6,7-tetrahydro-4H-pyrrolo[3,2-c]pyridin-4-one]
Ba/F3-EGFR-insSVD
  IC50: 0.0328 µM
Ba/F3-EGFR-WT; [1]
  IC50: 1.12 µM
Human Bub1; [2]
  IC50: 8.06 µM

## Cc1cccc(Nc2c(-c3ccncc3OCC3CCO3)[nH]c3c2C(=O)NCC3)c1Cl (racemic) [Example 37, 3-(2-chloro-3-methylanilino)-2-{3-[(oxetan-2-yl)methoxy]pyridin-4-yl}-1,5,6,7-tetrahydro-4H-pyrrolo[3,2-c]pyridin-4-one]
Ba/F3-EGFR-insSVD
  IC50: 0.105 µM
Ba/F3-EGFR-WT; [1]
  IC50: 0.942 µM
Human Bub1; [2]
  IC50: 11.7 µM

## Cc1c(Cl)cc(F)cc1Nc1c(-c2ccncc2OCC2CCO2)[nH]c2c1C(=O)NCC2 (racemic) [Example 40, 3-(3-chloro-5-fluoro-2-methylanilino)-2-{3-[(oxetan-2-yl)methoxy]pyridin-4-yl}-1,5,6,7-tetrahydro-4H-pyrrolo[3,2-c]pyridin-4-one]
Ba/F3-EGFR-insSVD
  IC50: 0.115 µM
Ba/F3-EGFR-WT; [1]
  IC50: 2.98 µM
Human Bub1; [2]
  IC50: 10.5 µM

## COc1c(F)cccc1Nc1c(-c2ccncc2OCCC2CCO2)[nH]c2c1C(=O)NCC2 (racemic) [Example 43, 3-(3-fluoro-2-methoxyanilino)-2-{3-[2-(oxetan-2-yl)ethoxy]pyridin-4-yl}-1,5,6,7-tetrahydro-4H-pyrrolo[3,2-c]pyridin-4-one]
Ba/F3-EGFR-insSVD
  IC50: 0.0115 µM
Ba/F3-EGFR-WT; [1]
  IC50: 0.262 µM
Human Bub1; [2]
  IC50: 3.5 µM

## CC1(C)COC1COc1cnccc1-c1[nH]c2c(c1Nc1cccc(Cl)c1OC(F)F)C(=O)NCC2 (racemic) [Example 71, 3-[3-chloro-2-(difluoromethoxy)anilino]-2-(3-{[3,3-dimethyloxetan-2-yl]methoxy}pyridin-4-yl)-1,5,6,7-tetrahydro-4H-pyrrolo[3,2-c]pyridin-4-one]
Ba/F3-EGFR-insSVD
  IC50: 0.122 µM
Human Bub1; [2]
  IC50: > 20 µM

## COc1c(Cl)cc(F)cc1Nc1c(-c2ccncc2OCC2CCO2)[nH]c2c1C(=O)NCC2 (single isomer, unassigned) [Example 67, 3-(3-chloro-5-fluoro-2-methoxyanilino)-2-(3-{[oxetan-2-yl]methoxy}pyridin-4-yl)-1,5,6,7-tetrahydro-4H-pyrrolo[3,2-c]pyridin-4-one]
Ba/F3-EGFR-WT; [3]
  IC50: 5.68 µM
Human Bub1; [2]
  IC50: > 20 µM

## CC1(COc2cnccc2-c2[nH]c3c(c2Nc2cccc(Cl)c2OC(F)F)C(=O)NCC3)CCO1 (single isomer, unassigned) [Example 75, 3-[3-chloro-2-(difluoromethoxy)anilino]-2-(3-{[2-methyloxetan-2-yl]methoxy}pyridin-4-yl)-1,5,6,7-tetrahydro-4H-pyrrolo[3,2-c]pyridin-4-one]
Ba/F3-EGFR-insSVD
  IC50: 0.305 µM
Human Bub1; [4]
  IC50: > 20 µM

## COc1c(F)cccc1Nc1c(-c2ccncc2OCC2(C)CCO2)[nH]c2c1C(=O)NCC2 (single isomer, unassigned; (-)) [Example 20, (−)-3-(3-fluoro-2-methoxyanilino)-2-{3-[(2-methyloxetan-2-yl)methoxy]pyridin-4-yl}-1,5,6,7-tetrahydro-4H-pyrrolo[3,2-c]pyridin-4-one]
Human Bub1; [4]
  IC50: 14.5 µM
Human Bub1; [2]
  IC50: 11.8 µM and > 20 µM

## COc1c(F)cccc1Nc1c(-c2ccncc2OCC2OCC2(C)C)[nH]c2c1C(=O)NCC2 (single isomer, unassigned; (-)) [Example 53, (−)-2-{3-[(3,3-dimethyloxetan-2-yl)methoxy]pyridin-4-yl}-3-(3-fluoro-2-methoxyanilino)-1,5,6,7-tetrahydro-4H-pyrrolo[3,2-c]pyridin-4-one]
Ba/F3-EGFR-WT; [3]
  IC50: 1.13 µM
Human Bub1; [2]
  IC50: > 20 µM

## COc1c(Cl)cccc1Nc1c(-c2ccncc2OCC2CCO2)[nH]c2c1C(=O)NCC2 (stereo not drawn) [Example 1, 3-(3-chlor-2-methoxyanilino)-2-[3-(oxetan-2-ylmethoxy)pyridin-4-yl]-1,5,6,7-tetrahydro-4H-pyrrolo[3,2-c]pyridin-4-on]
Ba/F3-EGFR-insSVD
  IC50: 0.0251 µM
Ba/F3-EGFR-WT; [1]
  IC50: 0.789 µM

## COc1c(Cl)cccc1Nc1c(-c2ccncc2OC[C@H]2CCO2)[nH]c2c1C(=O)NCC2 [Example 3, 3-(3-chloro-2-methoxyanilino)-2-(3-{[(2R)-oxetan-2-yl]methoxy}pyridin-4-yl)-1,5,6,7-tetrahydro-4H-pyrrolo[3,2-c]pyridin-4-one]
Ba/F3-EGFR-insSVD
  IC50: 0.136 µM
Human Bub1; [2]
  IC50: 4.51 µM

## COc1c(F)cccc1Nc1c(-c2ccncc2OC[C@H]2CCO2)[nH]c2c1C(=O)NCC2 [Example 6, 3-(3-fluoro-2-methoxyanilino)-2-(3-{[(2R)-oxetan-2-yl]methoxy}pyridin-4-yl)-1,5,6,7-tetrahydro-4H-pyrrolo[3,2-c]pyridin-4-one]
Ba/F3-EGFR-insSVD
  IC50: 0.276 µM
Human Bub1; [2]
  IC50: > 13.3 µM

## O=C1NCCc2[nH]c(-c3ccncc3OCC3CCO3)c(Nc3cccc4c3CCC4)c21 (stereo not drawn) [Example 36, 3-[(2,3-dihydro-1H-inden-4-yl)amino]-2-{3-[(oxetan-2-yl)methoxy]pyridin-4-yl}-1,5,6,7-tetrahydro-4H-pyrrolo[3,2-c]pyridin-4-one]
Ba/F3-EGFR-insSVD
  IC50: 0.377 µM
Human Bub1; [2]
  IC50: > 20 µM
